# Patent US20240199677A1, “GLYCOSYLTRANSFERASE INHIBITORS” (CALIFORNIA INSTITUTE OF TECHNOLOGY, priority 2018, published 2024)
# Tests used:
# [1] = system: KB; assay: Cytotoxicity MTT assay, KB; format: cell-based; conditions: Homo sapiens, KB; read-out: Cytotoxicity IC50 KB
# Procedure: (§1) Selected molecules were tested for cytotoxicity (IC50) in cancer and healthy cells via a MTT colorimetric assay.
# (§2) Each cell was cultured in recommended medium by ATCC, and the IC50 data were obtained with each cell line.
# [2] = system: MDA-MB-435S; assay: Cytotoxicity MTT assay, MDA-MB-435S; format: cell-based; conditions: Homo sapiens, MDA-MB-435S; read-out: Cytotoxicity IC50 MDA-MB-435S
# Procedure: as §1, §2
# [3] = system: Panc-1 cells; assay: Boyden Chamber migration assay, Panc-1; format: cell-based; conditions: FIG. 7, versus Gemcitabine, Taxol, Tunicamycin
# [4] = system: L12210; assay: Cytotoxicity MTT assay, L12210; format: cell-based; conditions: read-out: Cytotoxicity IC50 L12210
# Procedure: as §1, §2
# [5] = system: N-glycosylation of β-catenin; assay: Western blot, N-glycosylation of β-catenin (FIG. 6); format: cell-based; conditions: concentrations as low as
# [6] = system: C. perfringens; format: cell-based; conditions: FIG. 4
# [7] = target: DPAGT1 (Homo sapiens (Human), UniProt Q9H3H5); assay: DPAGT1 inhibition (FIG. 6); format: biochemical
# Chain of DPAGT1 (Q9H3H5 whole entry, looked up): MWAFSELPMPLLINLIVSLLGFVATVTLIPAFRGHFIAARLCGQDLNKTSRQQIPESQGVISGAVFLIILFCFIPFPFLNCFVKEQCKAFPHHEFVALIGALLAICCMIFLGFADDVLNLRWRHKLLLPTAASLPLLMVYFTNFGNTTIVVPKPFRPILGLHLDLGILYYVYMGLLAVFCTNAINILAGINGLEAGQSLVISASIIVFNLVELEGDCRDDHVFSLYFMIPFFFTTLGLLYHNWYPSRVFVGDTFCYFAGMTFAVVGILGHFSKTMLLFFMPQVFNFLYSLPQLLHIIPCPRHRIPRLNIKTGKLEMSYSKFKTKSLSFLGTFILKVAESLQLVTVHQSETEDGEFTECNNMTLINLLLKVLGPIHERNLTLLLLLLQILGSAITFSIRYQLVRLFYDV
compound,measurement,setting,value
NC[C@H]1O[C@@H](O[C@H]([C@H]2O[C@@H](n3ccc(=O)[nH]c3=O)[C@H](O)[C@@H]2O)[C@H](NCCCC(=O)NCc2ccc(N3CCC(Oc4ccc(C(F)(F)F)cc4)CC3)cc2)C(N)=O)[C@H](O)[C@@H]1O [Compound 11],IC50,[1],7.09 µM
same,IC50,[2],7.09 µM
same,Panc-1 migratory cells,[3],"fewer Panc-1 migratory cells than Gemcitabine, Taxol, and Tunicamycin"
same,IC50,[4],> 100 µM
same,Lowest concentration inhibiting N-glycosylation of β-catenin,[5],0.39 nM
same,Antibacterial activity against C. perfringens,[6],displayed antibacterial activity
same,IC50,[7],0.26 µM
